What was measured:
Assay in all cases: fitness (endpoint OD595 vs no drug) (fraction); higher = more growth
S. aureus Newman = system: S. aureus Newman
Procedure, shortened: (§1)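 Bacterial fitness was scored as optical density at the stationary-phase transition relative to the robust mean of no-drug control wells. Scores are capped at 1. The growth data were OD595 readings every 30 min for 14 h at 37 °C, background-subtracted against the first reading, from 384-well plates inoculated at OD595 0.01 in TSB, LB Lennox or CY.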

B. subtilis 168 = system: B. subtilis 168
Procedure, shortened: as §1

S. pneumoniae D39V = system: S. pneumoniae D39V
Procedure, shortened: as §1
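Also: OD595 on entry to stationary phase over no-drug wells; at most 1.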

CC1(C)S[C@@H]2[C@H](NC(=O)Cc3ccccc3)C(=O)N2[C@H]1C(=O)O [Penicillin G] + CN(N=O)C(=O)N[C@@H](C=O)[C@@H](O)[C@H](O)[C@H](O)CO [Streptozotocin]
fitness, S. aureus Newman
Conditions	first compound 0.0195 µg/mL	first compound 0.039 µg/mL	first compound 0.078 µg/mL
partner 0.15 µg/mL	0.759	0.731	0.709
partner 0.3 µg/mL	0.623	0.627	0.621
partner 0.6 µg/mL	0.501	0.486	0.493

CC1(C)S[C@@H]2[C@H](NC(=O)Cc3ccccc3)C(=O)N2[C@H]1C(=O)O [Penicillin G] + CN(C)c1cc(NC(=O)CNC(C)(C)C)c(O)c2c1C[C@H]1C[C@H]3[C@H](N(C)C)C(O)=C(C(N)=O)C(=O)[C@@]3(O)C(O)=C1C2=O [Tigecycline]
fitness, S. aureus Newman
Conditions	first compound 0.0195 µg/mL	first compound 0.039 µg/mL	first compound 0.078 µg/mL
partner 0.039 µg/mL	0.879	0.879	0.864
partner 0.078 µg/mL	0.898	0.919	0.913
partner 0.156 µg/mL	0.904	0.924	0.913

C[C@H]1c2cccc(O)c2C(=O)C2=C(O)[C@]3(O)C(=O)C(C(N)=O)=C(O)[C@@H](N(C)C)[C@@H]3[C@@H](O)[C@@H]21 [Doxycycline] + COc1cccc2c1C(=O)c1c(O)c3c(c(O)c1C2=O)C[C@@](O)(C(=O)CO)C[C@@H]3O[C@H]1C[C@H](N)[C@H](O)[C@H](C)O1 [Doxorubicin]
fitness
Conditions	partner 0.25 µg/mL	partner 0.5 µg/mL	partner 0.625 µg/mL	partner 1 µg/mL	partner 1.25 µg/mL	partner 2.5 µg/mL
B. subtilis 168, first compound 0.02 µg/mL	–	–	0.915	–	0.854	0.695
B. subtilis 168, first compound 0.04 µg/mL	–	–	0.722	–	0.712	0.58
S. pneumoniae D39V, first compound 0.0155 µg/mL	0.833	0.826	–	0.814	–	–

fitness, S. pneumoniae D39V, one replicate
Conditions	partner 0.25 µg/mL	partner 0.5 µg/mL	partner 1 µg/mL
first compound 0.003875 µg/mL	0.916	0.914	0.887
first compound 0.00775 µg/mL	0.885	0.891	0.848

CN(C)[C@@H]1C(O)=C(C(N)=O)C(=O)[C@@]2(O)C(O)=C3C(=O)c4c(O)ccc(Cl)c4[C@@](C)(O)[C@H]3C[C@@H]12 [Chlortetracycline] + CC(C1CCC(C(O1)OC2C(CC(C(C2O)OC3C(C(C(CO3)(C)O)NC)O)N)N)N)NC [Gentamicin]
main component drawn
Conditions	fitness
B. subtilis 168, first compound 0.0475 µg/mL, partner 0.0625 µg/mL	0.917
B. subtilis 168, first compound 0.095 µg/mL, partner 0.0625 µg/mL	0.778
B. subtilis 168, first compound 0.19 µg/mL, partner 0.25 µg/mL	0.0795
S. pneumoniae D39V, first compound 0.012 µg/mL, partner 2 µg/mL	0.8
S. pneumoniae D39V, first compound 0.012 µg/mL, partner 4 µg/mL	0.752
S. pneumoniae D39V, first compound 0.012 µg/mL, partner 8 µg/mL	0.706
S. pneumoniae D39V, first compound 0.024 µg/mL, partner 2 µg/mL	0.393
S. pneumoniae D39V, first compound 0.024 µg/mL, partner 4 µg/mL	0.392
S. pneumoniae D39V, first compound 0.024 µg/mL, partner 8 µg/mL	0.389
S. pneumoniae D39V, first compound 0.048 µg/mL, partner 2 µg/mL	0.255
S. pneumoniae D39V, first compound 0.048 µg/mL, partner 4 µg/mL	0.184
S. pneumoniae D39V, first compound 0.048 µg/mL, partner 8 µg/mL	0.187
S. pneumoniae D39V, first compound 0.375 µg/mL, partner 2 µg/mL	0.0667
S. pneumoniae D39V, first compound 0.375 µg/mL, partner 4 µg/mL	0.0598
S. pneumoniae D39V, first compound 0.375 µg/mL, partner 8 µg/mL	0.0694
S. pneumoniae D39V, first compound 0.75 µg/mL, partner 2 µg/mL	0.0603
S. pneumoniae D39V, first compound 0.75 µg/mL, partner 4 µg/mL	0.0825
S. pneumoniae D39V, first compound 0.75 µg/mL, partner 8 µg/mL	0.0967
S. pneumoniae D39V, first compound 1.5 µg/mL, partner 2 µg/mL	0.0704
S. pneumoniae D39V, first compound 1.5 µg/mL, partner 4 µg/mL	0.0878
S. pneumoniae D39V, first compound 1.5 µg/mL, partner 8 µg/mL	0.0614

CN(C)[C@@H]1C(O)=C(C(N)=O)C(=O)[C@@]2(O)C(O)=C3C(=O)c4c(O)ccc(Cl)c4[C@@](C)(O)[C@H]3C[C@@H]12 [Chlortetracycline] + C[C@H]1c2cccc(O)c2C(=O)C2=C(O)[C@]3(O)C(=O)C(C(N)=O)=C(O)[C@@H](N(C)C)[C@@H]3[C@@H](O)[C@@H]21 [Doxycycline]
Conditions	fitness
B. subtilis 168, first compound 0.0475 µg/mL, partner 0.02 µg/mL	0.858
B. subtilis 168, first compound 0.0475 µg/mL, partner 0.04 µg/mL	0.658
B. subtilis 168, first compound 0.095 µg/mL, partner 0.02 µg/mL	0.735
B. subtilis 168, first compound 0.095 µg/mL, partner 0.04 µg/mL	0.553
B. subtilis 168, first compound 0.19 µg/mL, partner 0.08 µg/mL	0.0672
S. pneumoniae D39V, first compound 0.012 µg/mL, partner 0.0155 µg/mL	0.921
S. pneumoniae D39V, first compound 0.024 µg/mL, partner 0.0155 µg/mL	0.88
S. pneumoniae D39V, first compound 0.048 µg/mL, partner 0.0155 µg/mL	0.803
S. pneumoniae D39V, first compound 0.375 µg/mL, partner 0.0155 µg/mL	0.0318
S. pneumoniae D39V, first compound 0.375 µg/mL, partner 0.031 µg/mL	0.0187
S. pneumoniae D39V, first compound 0.375 µg/mL, partner 0.062 µg/mL	0.0418
S. pneumoniae D39V, first compound 0.75 µg/mL, partner 0.0155 µg/mL	0.0248
S. pneumoniae D39V, first compound 0.75 µg/mL, partner 0.031 µg/mL	0.0352
S. pneumoniae D39V, first compound 0.75 µg/mL, partner 0.062 µg/mL	0.0311
S. pneumoniae D39V, first compound 1.5 µg/mL, partner 0.0155 µg/mL	0.0258
S. pneumoniae D39V, first compound 1.5 µg/mL, partner 0.031 µg/mL	0.067
S. pneumoniae D39V, first compound 1.5 µg/mL, partner 0.062 µg/mL	0.047

fitness, S. pneumoniae D39V, one replicate
Conditions	partner 0.003875 µg/mL	partner 0.00775 µg/mL	partner 0.031 µg/mL	partner 0.062 µg/mL
first compound 0.012 µg/mL	0.909	0.91	0.8	0.707
first compound 0.024 µg/mL	0.834	0.808	0.821	0.774
first compound 0.048 µg/mL	0.774	0.809	0.745	0.614
